Reference: patent publication US5703205A, “Laminin a chain polypeptides from the amino terminal golbular domain” (Regents of the University of Minnesota, priority 1993, dated 1997)

Assays:
Type in all cases: cell-based
[1] = test system: human colon carcinoma (K12C); test: Direct cell adhesion to coated surfaces (Table II); details: wells coated with 5 μg, 2 hours, % of total cells added
From the text: (§1) The human fibrosarcoma HT-1080 cell line was obtained from the ATCC. The murine melanoma K-1735-C10 (low metastatic) and K-1735-M4 (high metastatic) cell lines, murine UV-2237-MM fibrosarcoma cell line, human renal carcinoma SN12 PM-6 (high metastatic) cell line, and human colon carcinoma KM12 C (low metastatic) and KM12 SM (high metastatic) cell lines were originally provided by Dr. I. J. Fidler (M.D., Anderson Hospital, University of Texas Health Sciences Center, Houston, Tex.). The MM fibrosarcoma cell line was maintained in DME (GIBCO Laboratories, Grand Island, N.Y.) containing 10% FBS, the murine melanomas were maintained in DMEM containing 10% calf serum, the human fibrosarcoma cells were maintained in EMEM containing 10% heat inactivated FBS, and the human renal and colon carcinoma cells were grown in EMEM containing 10% FBS, vitamins, and 1 mM sodium pyruvate. Cells were passaged for 4 to 5 weeks and then replaced from frozen stocks of early passage cells to minimize phenotypic drift. Cells were maintained at 37° C. in a humidified incubator containing 5% CO2.
(§2) The direct adhesion of cells to protein or peptide coated surfaces was performed as described in Skubitz et al., Exp. Cell Res., 173, 349-360 (1987) and Charonis et al., supra (1988). Briefly, radiolabeled cells were added to 96-well microtiter plates coated with various concentrations of synthetic peptides, laminin, or BSA (0.02 μg/well-50 μg/well from 50 μl solutions) for various lengths of time. After the incubation period, loosely or nonadherent cells were removed by washing the wells three times. Adherent cells weresolubilized and quantitated in a scintillation counter. More specifically, cultures of cells which were 60-80% confluent were metabolically labeled for 24 hours with the addition of 3 μCi/ml of ^3 H-td (tritiated thymidine). On the day of the assay, the cells were harvested by trypsinization, the trypsin was inhibited by the addition of serum, and the cells were washed free of this mixture and resuspended in DMEM buffered with HEPES at pH 7.2. The adhesion medium also contained 2 mg/ml BSA. The cells were adjusted to a concentration of 3-4×10^4/ ml, and 100 μl of this cell suspension was added to the wells. The assay mixture was then incubated at 37° C. for 120 minutes. At the end of the incubation, the wells were washed with warm DMEM/Hepes containing 2 mg/ml BSA, and the adherent population was solubilized with 0.5N NaOH contained 1% SDS. The solubilized cells were then quantitated using a liquid scintillation counter.
(§3) Microtiter wells were adsorbed with peptide R18, laminin, or BSA and a variety of tumor cell lines were tested for the ability to adhere to the ligands. The six different tumor cell lines selected for this study were of murine or human origin and, in most cases, of either high or low metastatic capacity. As reported in Table II, peptide R18 was also capable of promoting the adhesion of all six cell lines.
(§4) *Microtiter wells were coated with 5 μg of the peptide or proteins and […]

[2] = test system: human colon carcinoma (KI2SM); test: Direct cell adhesion to coated surfaces (Table II); details: wells coated with 5 μg, 2 hours, % of total cells added
From the text: as §1, §2, §3, §4

[3] = test system: human renal carcinoma (SN12 PM6); test: Direct cell adhesion to coated surfaces (Table II); details: wells coated with 5 μg, 2 hours, % of total cells added
From the text: as §1, §2, §3, §4

murine fibrosarcoma (MM) = test: Direct cell adhesion to coated surfaces (Table II); details: wells coated with 5 μg, 2 hours, % of total cells added
From the text: as §1, §2, §3, §4

murine melanoma (C10) = test: Direct cell adhesion to coated surfaces (Table II); details: wells coated with 5 μg, 2 hours, % of total cells added
From the text: as §1, §2, §3, §4

murine melanoma (M4) = test: Direct cell adhesion to coated surfaces (Table II); details: wells coated with 5 μg, 2 hours, % of total cells added
From the text: as §1, §2, §3, §4

[4] = test system: HT-1080 human fibrosarcoma cells; test: Cell spreading assay on coated surfaces; details: for Cells Spread (%) / Surface Area Occupied by a Cell: wells coated with 300 μl at 100 μg/ml, 2 1/2 hour incubation
Experimental: Spreading of the adherent cells was evaluated by performing adhesion assays similar to those described above. Twenty-four well tissue culture plates (Becton Dickinson and Co., Lincoln Park, N.J.) were coated with 300 μl of laminin, synthetic peptides, or BSA at 100 μg/ml, then blocked with 2 mg/ml BSA in PBS. Three hundred microliters of a cell suspension at 5×10^4 cells/ml was added to each well, and after a 21/2 hour incubation, nonadherent cells were aspirated out of the wells. Adherent cells were fixed with 2% glutaraldehyde in PBS at 23° C. for one hour. The glutaraldehyde was then removed and the cells were stained by two different techniques. For photographic purposes, the cells were stained with Diff-Quik Solution I (American Scientific Products, McGaw Park, Ill.) for 10 minutes at 23° C. Solution I was removed, then Diff-Quik Solution II was added and the cells were stained for another 10 minutes at 23° C. Wells were washed with PBS, then representative cells were photographed with a Nikon DIAPHOT inverted phase microscope using Panatomic X Film ASA32 (Eastman Kodak, Rochester, N.Y.). Adherent cells to be quantitated for spreading were stained overnight at 23° C. with 500 μl of a solution containing 0.12% (w/v) Coomassie Brilliant Blue R (Sigma Chemical Co.), 5% (v/v) acetic acid, and 50% (v/v) ethanol. Wells were washed three times with 500 μl of PBS and cell spreading was then quantitated by measuring the average surface area occupied by a cell using an Opti-Max Image Analyzer. Thirty cells were measured per well; each experiment was done in quadruplicate and repeated three times. Cells spread the best on peptide R17 and R18 and occupy an area of ~30% of that seen for cells on laminin-coated surfaces. On surfaces coated with peptides R19, R20, and R32, less cell spreading was observed; cells occupied an area ~20% of that seen on intact laminin. Cell spreading on ovalbumin (negative control) was less than 10% of that seen on laminin but the cells were barely adherent under these last conditions.

[5] = test system: HT-1080 human fibrosarcoma cells; test: Direct adhesion of radiolabeled cells to peptide or protein coated microtiter wells; details: increasing concentrations adsorbed, up to 5 μg/well; 120 minutes
Experimental: FIG. 3 reports results in microtiter wells adsorbed with increasing concentrations of HPLC-purified peptides R17 (.smallcircle.) R18 (.quadrature.), or R19 (Δ), R20 (.circle-solid.), R32 (.box-solid.), laminin (.tangle-solidup.), or ovalbumin (.diamond.) and radiolabeled HT-1080 human fibrosarcoma cells that were allowed to adhere for 2 hours after being released from flasks with EDTA/trypsin. Each value represents the mean of four separate determinations, and the SEM was less than 10% in each case.
The direct adhesion of cells to protein or peptide coated surfaces was performed as described in Skubitz et al., Exp. Cell Res., 173, 349-360 (1987) and Charonis et al., supra (1988). Briefly, radiolabeled cells were added to 96-well microtiter plates coated with various concentrations of synthetic peptides, laminin, or BSA (0.02 μg/well-50 μg/well from 50 μl solutions) for various lengths of time. After the incubation period, loosely or nonadherent cells were removed by washing the wells three times. Adherent cells weresolubilized and quantitated in a scintillation counter. […] The solubilized cells were then quantitated using a liquid scintillation counter.
In this case, increasing concentrations of the five synthetic peptides were adsorbed to microtiter wells. Radiolabeled HT-1080 human fibrosarcoma cells were incubated in the wells for 120 minutes and the adhesion of cells was quantitated. […]

Substance | Cell Adhesion (%) to Coated Surfaces [1] [%] | Cell Adhesion (%) to Coated Surfaces [2] [%] | Cell Adhesion (%) to Coated Surfaces [3] [%] | Cell Adhesion (%) to Coated Surfaces (murine fibrosarcoma (MM)) [%] | Cell Adhesion (%) to Coated Surfaces (murine melanoma (C10)) [%] | Cell Adhesion (%) to Coated Surfaces (murine melanoma (M4)) [%] | Cells Spread (%) [4] [%] | Surface Area Occupied by a Cell [4] [um^2] | cell adhesion to coated wells (in words) [5] | area occupied by cells relative to that on laminin-coated surfaces ([4]; HT-1080 cell spreading, relative to intact laminin)
Laminin | 25 | 36 | 40 | 43 | 80 | 50 | 95 | 611 ± 79 |  | 
Ovalbumin: negative control protein |  |  |  |  |  |  | 0 | 71 ± 41 | no cell adhesion was observed | less than 10%
